Laboratory results published in patent publication US6562632B1, “Reactive derivatives of sulforhodamine 101 with enhanced hydrolytic stability” (Molecular Probes, Inc., priority 1995, dated 2003).
Values joined by “and” are separate entries in the source; they are usually repeats but may differ in a detail not shown here. Equal values may be shown once.

Tests used:
streptavidin (STR) = streptavidin (STR) (Streptomyces avidinii, UniProt P22629); assay: Protein labeling with reactive dye, degree of substitution on streptavidin; settings: for Degree of Substitution: STR
Method: Protein conjugates of sulforhodamine 101 are prepared using Compound 2 (Example 2). The degree of substitution achieved on the selected proteins (bovine serum albumin (BSA), goat anti-mouse IgG (GAM) or streptavidin (STR)) is then determined.
A fresh solution of the desired protein is prepared that is 10 mg protein/mL in 0.1 M sodium bicarbonate. The labeling reagent (Compound 2) is dissolved in DMF to give a concentration of 10 mg dye/mL. Predetermined amounts of the labeling reagent in DMF are slowly added to the protein solution with stirring. A molar ratio of 10 equivalents dye to equivalent of protein is typical, though the optimal amount varies with particular labeling reagent and protein being labeled. The reaction mixture is incubated at room temperature for one hour. The dye-protein conjugate is separated from free unreacted reagent by gel filtration on a CELLUFINE GH-25 column equilibrated in PBS. The initial, protein-containing colored band is collected from the column, and the degree of substitution is determined by measuring the absorbance of the conjugate at 595 nm, and calculating the degree of substitution using an extinction coefficient of 80,000 cm^−1M^−1 for the dye.
Dye conjugates are similarly prepared using SSC excepting that the protein solution is maintained at pH 9, and the labeling reaction is conducted at ice bath temperatures to minimize hydrolysis of the labeling reagent.

[1] = 90% DMF and 10% aqueous sodium bicarbonate; two hours of incubation; TLC
Method: Compound 2 and SSC are separately dissolved in solutions that are 90% DMF and 10% aqueous sodium bicarbonate. Each solution is analyzed using thin layer chromatography (TLC) as follows: An aliquot from each sample is diluted 1:100 in methanol and 1 μL of the resulting solution is spotted on a silica gel TLC plate and developed in 15% methanol in chloroform.

[2] = target: bovine serum albumin (BSA) (Bos taurus, UniProt P02769); assay: Protein labeling with reactive dye, degree of substitution on BSA; settings: Dye:Protein Ratio 15
bovine serum albumin (BSA), sequence (P02769 25-607): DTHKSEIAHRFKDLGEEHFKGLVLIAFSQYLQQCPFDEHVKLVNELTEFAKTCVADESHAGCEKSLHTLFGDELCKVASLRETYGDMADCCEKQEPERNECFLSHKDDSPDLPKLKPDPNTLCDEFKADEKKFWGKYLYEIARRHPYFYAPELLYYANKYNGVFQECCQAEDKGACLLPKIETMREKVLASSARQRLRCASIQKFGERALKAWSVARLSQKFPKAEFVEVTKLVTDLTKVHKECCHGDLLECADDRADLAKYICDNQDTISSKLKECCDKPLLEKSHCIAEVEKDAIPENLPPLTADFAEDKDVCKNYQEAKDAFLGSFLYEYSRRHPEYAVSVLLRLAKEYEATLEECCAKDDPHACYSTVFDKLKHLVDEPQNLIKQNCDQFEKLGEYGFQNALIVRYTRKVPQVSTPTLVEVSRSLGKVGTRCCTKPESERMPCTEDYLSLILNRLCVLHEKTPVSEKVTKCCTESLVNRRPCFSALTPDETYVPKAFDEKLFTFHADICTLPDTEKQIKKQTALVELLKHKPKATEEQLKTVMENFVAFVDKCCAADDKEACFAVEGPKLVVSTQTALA
Method: A fresh solution of the desired protein is prepared that is 10 mg protein/mL in 0.1 M sodium bicarbonate. […] Predetermined amounts of the labeling reagent in DMF are slowly added to the protein solution with stirring. A molar ratio of 10 equivalents dye to equivalent of protein is typical, though the optimal amount varies with particular labeling reagent and protein being labeled. The reaction mixture is incubated at room temperature for one hour. The dye-protein conjugate is separated from free unreacted reagent by gel filtration on a CELLUFINE GH-25 column equilibrated in PBS. The initial, protein-containing colored band is collected from the column, and the degree of substitution is determined by measuring the absorbance of the conjugate at 595 nm, and calculating the degree of substitution using an extinction coefficient of 80,000 cm^−1M^−1 for the dye.

streptavidin (STR), sequence (P22629 25-183, species assumed): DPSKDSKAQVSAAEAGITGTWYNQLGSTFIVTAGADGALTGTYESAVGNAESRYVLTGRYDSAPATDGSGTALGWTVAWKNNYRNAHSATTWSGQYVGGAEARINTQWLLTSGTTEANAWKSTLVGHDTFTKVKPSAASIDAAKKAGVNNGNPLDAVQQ

Compound	Degree of Substitution (streptavidin (STR); Dye:Protein Ratio 1)	Degree of Substitution (streptavidin (STR); Dye:Protein Ratio 2.5)	Degree of Substitution (streptavidin (STR); Dye:Protein Ratio 5.5)	Degree of Substitution (streptavidin (STR); Dye:Protein Ratio 8.0)	Degree of Substitution (streptavidin (STR); Dye:Protein Ratio 10)	Degree of Substitution (streptavidin (STR); Dye:Protein Ratio 20)	Degree of Substitution (streptavidin (STR); Dye:Protein Ratio 30)	Decomposition in the presence of water [1]	Degree of Substitution [2]	Degree of substitution of the streptavidin conjugates used as immunoreagents (streptavidin (STR); two conjugates used in Example 24)
O=C(CCCCCNS(=O)(=O)c1ccc(C2=c3cc4c5c(c3Oc3c2cc2c6c3CCCN6CCC2)CCC[N+]=5CCC4)c(S(=O)(=O)[O-])c1)ON1C(=O)CCC1=O [Compound 2]	0.76	1.6	4.4	5.6	6.0	6.0	6.9	10-20%	4.5	–
streptavidin conjugates of SSC: two streptavidin conjugates prepared with SSC [reference compound]	–	–	–	–	–	–	–	–	–	2.4 dyes per mole and 3.9 dyes per mole
sulfonyl chloride of sulforhodamine 101 [SSC, reference compound]	0.066	1.2	2.4	3.0	3.9	4.9	5.1	–	3.2	–
